# Experiments:
# in vitro = assay type: cell-based; conditions: human
# Experimental: The ACE inhibitory activities of the synthetic peptides were measured, and the cell toxicity was evaluated by cell viability testing on the hepatocyte cell line HepG2. HepG2 cells were cultured in MEM medium containing 10% fetal bovine serum. Ninety-six well plates containing 1 × 10^4 cells per well were incubated at 35°C for 24 h under 95% humidity and 5% CO2. After incubation, the synthetic peptides were added (final concentration, 200 μg/mL) and cells were incubated under the same conditions for an additional 24 h. Cell growth was assessed with the CellTiter 96 Aqueous One Solution Cell Proliferation Assay kit (Promega, Madison, WI, USA) and absorbance was determined with a microplate reader (Perkin Elmer 1420, VICTOR X Multilabel Plate readers, Waltham, MA, USA) at 490 nm. Cell viability was calculated as the percentage of absorbance of the synthetic peptide-treated groups compared with that of the untreated group (100% viability).
# [1] = target: Angiotensin I-converting enzyme (UniProt P12822)
# [2] = tested on: spontaneously hypertensive rats (SHR); assay: Antihypertensive activity in vivo: SBP of SHR by tail-cuff method after intragastric administration; set-up: species or system rat
# Experimental: Spontaneously hypertensive rats (SHR) with systolic blood pressure (SBP) between 170 and 190 mmHg and original strain Wistar Kyoto rats (WKR) with SBP between 100 and 125 mmHg were purchased from Harlan, USA (Indianapolis, USA). All rats were treated in accordance with Kyung Hee University guidelines for the care and use of laboratory animals. The animals were individually housed in stainless steel cages and adapted to 23 ± 1°C and humidity of 55 ± 5% under a 12 h light-dark cycle. The 12-week-old rats were fed a pelletized commercial chow diet for a period of 1 week after arrival and then randomly divided into five groups: untreated SHR control group (n = 3); normal WKR control group (n = 3); oyster hydrolysate-treated SHR group (100 mg/kg body weight, n = 3); sardine hydrolysate-treated SHR group (positive control, 100 mg/kg body weight, n = 3); and Captopril-treated SHR group (positive control, ACE inhibitor; 8 mg/kg body weight, n = 3). After intragastric administration of the samples using Sonde, SBP of the rats was measured by a Coda noninvasive blood pressure system (Kent Scientific Corporation, Baltimore, USA) using the tail-cuff method after prewarming for 30 min in an environmental chamber of 32°C at 0, 3, 6, 9, 12, and 24 h. Subsequent measurement of blood pressure was expressed as a percentage of that at the initial time.
# Chain of UniProt P12822 (P12822 34-1260): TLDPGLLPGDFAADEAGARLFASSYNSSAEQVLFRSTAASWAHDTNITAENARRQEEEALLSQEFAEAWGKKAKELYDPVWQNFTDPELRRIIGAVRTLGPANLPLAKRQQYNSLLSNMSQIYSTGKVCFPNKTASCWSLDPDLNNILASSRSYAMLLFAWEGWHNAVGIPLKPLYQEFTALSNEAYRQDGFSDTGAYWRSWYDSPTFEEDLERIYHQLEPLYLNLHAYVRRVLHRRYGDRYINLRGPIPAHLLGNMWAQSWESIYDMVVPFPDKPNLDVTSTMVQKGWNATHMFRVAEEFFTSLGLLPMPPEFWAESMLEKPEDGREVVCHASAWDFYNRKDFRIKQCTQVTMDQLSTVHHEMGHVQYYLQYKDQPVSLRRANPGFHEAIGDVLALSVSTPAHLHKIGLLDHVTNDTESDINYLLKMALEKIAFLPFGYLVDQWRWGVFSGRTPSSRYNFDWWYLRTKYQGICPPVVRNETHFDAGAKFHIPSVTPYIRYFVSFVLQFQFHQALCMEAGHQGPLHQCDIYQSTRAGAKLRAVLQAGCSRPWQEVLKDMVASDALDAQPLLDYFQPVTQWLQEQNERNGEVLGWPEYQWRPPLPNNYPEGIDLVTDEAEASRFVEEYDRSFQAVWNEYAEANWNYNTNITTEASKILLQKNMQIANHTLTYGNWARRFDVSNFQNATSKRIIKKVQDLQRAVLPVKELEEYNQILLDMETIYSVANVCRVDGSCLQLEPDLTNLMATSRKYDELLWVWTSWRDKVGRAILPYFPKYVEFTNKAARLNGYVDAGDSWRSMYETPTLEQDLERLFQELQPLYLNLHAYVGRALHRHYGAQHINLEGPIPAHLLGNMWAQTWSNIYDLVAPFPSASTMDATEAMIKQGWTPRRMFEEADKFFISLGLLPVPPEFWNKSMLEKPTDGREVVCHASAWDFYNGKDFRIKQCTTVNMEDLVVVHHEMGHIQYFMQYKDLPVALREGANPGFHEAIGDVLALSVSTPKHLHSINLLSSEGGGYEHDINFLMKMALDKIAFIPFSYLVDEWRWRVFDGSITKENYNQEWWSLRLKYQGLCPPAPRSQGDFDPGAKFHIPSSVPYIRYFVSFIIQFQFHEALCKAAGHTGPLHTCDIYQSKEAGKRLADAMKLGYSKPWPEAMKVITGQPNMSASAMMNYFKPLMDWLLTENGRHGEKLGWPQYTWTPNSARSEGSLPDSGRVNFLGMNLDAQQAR
Compound,"viability at 24 h, 200 μg/mL (in vitro) [%]","IC50 of ACE inhibition (enzyme activity: hippuric acid released from HHL, by HPLC) [1] [µM]",further results
NCCCC[C@H](N)C(=O)N[C@@H](Cc1ccc(O)cc1)C(=O)O [KY],118 ± 7,–,–
CC(C)[C@H](N)C(=O)N[C@@H](CCCCN)C(=O)O [VK],118 ± 15.1,–,–
VK (peptide),–,29,–
YA (peptide),–,93.9,–
C[C@H](CS)C(=O)N1CCC[C@H]1C(=O)O [Captopril],–,–,"SBP at maximum decrease, as % of the initial SBP ([2]; 8 mg/kg intragastric, 12 h after administration): 85.3 ± 4.5%; effect on SBP of SHR (in words) ([2]; oral administration, oyster and sardine hydrolysate 100 mg/kg, Captopril 8 mg/kg): not significant"
NC(=O)C[C@H](NC(=O)[C@H](Cc1ccc(O)cc1)NC(=O)[C@@H](N)Cc1ccccc1)C(=O)O [FYN],110 ± 3,–,–
C[C@H](NC(=O)[C@@H](N)[C@@H](C)O)C(=O)N[C@@H](Cc1ccc(O)cc1)C(=O)O [TAY],105 ± 1.9,–,–
FYN (peptide),–,68.2,–
KY (peptide),–,51.5,–
TAY (peptide),–,16.7,–

# — article PMC4130196, “Angiotensin I-Converting Enzyme Inhibitor Derived from Cross-Linked Oyster Protein” (BioMed Research International, 2014)
